Patent US9492545B2, “Compositions of statins and omega-3 fatty acids” (Omthera Pharmaceuticals, Inc., priority 2012, dated 2016)

Tests used:
[1] = Stability testing of statins dissolved in PUFA free acid solvent system at 25° C., 60% RH (Example 5); type: physicochemical
Procedure: The compositions were then mixed until full dissolution was observed, using a magnetic stir bar and sonication for 30-60 second intervals, taking care to maintain a nitrogen headspace over the solution throughout processing. […] Vials were covered with foil to protect from light and stored at 25° C., 60% RH. One vial of each of the three compositions was retrieved at each timepoint for testing. Procedures as listed in the USP Monograph for Omega-3-Acid Ethyl Ester Capsules were followed for measuring quantities of acid value, peroxide value, and absorbance for fats and fixed oils.

[2] = Solubility of statins in PUFA free acid solvent system, HPLC of supernatant (Example 4); type: physicochemical; settings: 2 mL PUFA free acid solvent; after addition of about 313 mg; before overnight standing
Procedure: For this study, ten vials were prepared such that 5 vials contained 2 mL of Lovaza oil and 5 vials contained 2 mL of PUFA free acid solvent system. About 20 mg of each statin were added to one Lovaza oil vial and to one PUFA free acid solvent system vial. Vials containing the samples were blanketed with nitrogen, then sealed. The vials were then sonicated for 1 hour or until contents appeared clear. After sonication, vials which remained clear received additional 20 mg aliquots of their respective statin and were again blanketed with nitrogen. […] The samples were centrifuged and the supernatant was assayed for the respective statin by HPLC.

[3] = Solubility of statins in various pH buffers (Example 1)
[4] = Solubility of statins in omega-3 ethyl ester solvent system, Lovaza fill (Example 3); settings: sonicated 1 hour, overnight, supernatant by HPLC

Compound | Statin in oil, content ([1]; t = 0) [mg/g] | Statin in oil, percent of total ([1]; t = 0) [%] | Statin in oil, content ([1]; t = 1 week) [mg/g] | Statin in oil, percent of total ([1]; t = 1 week) [%] | Statin in oil, content ([1]; t = 2 week) [mg/g] | Statin in oil, percent of total ([1]; t = 2 week) [%] | Appearance of vial after repeated statin additions and sonication [2] | Solubility ([3]; acid phthalate buffer pH 4.0, T = 1 Week) | pH of maximal aqueous solubility ([3]; across the tested pH buffers) | Aqueous solubility (in words) ([3]; overall across pH buffers, rosuvastatin at time zero) | Initial solubility in PUFA ethyl ester solvent system, Concentration [4] [µg/mL]
CC(C)c1c(C(=O)Nc2ccccc2)c(-c2ccccc2)c(-c2ccc(F)cc2)n1CC[C@@H](O)C[C@@H](O)CC(=O)[O-].CC(C)c1c(C(=O)Nc2ccccc2)c(-c2ccccc2)c(-c2ccc(F)cc2)n1CC[C@@H](O)C[C@@H](O)CC(=O)[O-].[Ca+2] [Atorvastatin, Atorvastatin Calcium] | 8.738 | 100 | 8.275 | 100 | 7.839 | 100 | – | – | – | – | –
CC[C@H](C)C(=O)O[C@H]1C[C@H](O)C=C2C=C[C@H](C)[C@H](CC[C@@H](O)C[C@@H](O)CC(=O)O)[C@H]21 [Pravastatin Sodium] | – | – | – | – | – | – | still remained clear | – | – | – | –
CC(C)c1nc(N(C)S(C)(=O)=O)nc(-c2ccc(F)cc2)c1/C=C/[C@@H](O)C[C@@H](O)CC(=O)[O-].CC(C)c1nc(N(C)S(C)(=O)=O)nc(-c2ccc(F)cc2)c1/C=C/[C@@H](O)C[C@@H](O)CC(=O)[O-].[Ca+2] [Rosuvastatin, Rosuvastatin Calcium] | 6.481 | 100 | 6.416 | 100 | 6.505 | 100 | – | 0.002 | ~7.0 | significant aqueous solubility | 1
